Source: patent publication US20260125371A1, “METHOD FOR INHIBITING CLOSTRIDIOIDES DIFFICILE SPORE GERMINATION” (UNIVERSITY OF NOTRE DAME DU LAC, priority 2022, published 2026)
Values after ≈ are worked out from the molar mass of the structure shown. Like-named read-outs stand apart in the source and are kept apart here. Blank lines part the entries; values can stand above or below the compound they belong to.

Experiments:
[1] = test system: C. difficile ATCC 43255; test: Determination of minimal-inhibitory concentrations (microdilution), C. difficile ATCC 43255; type: cell-based, Clostridioides difficile; conditions: for MIC: Clostridioides difficile
[2] = test system: S. aureus; test: MIC against S. aureus strains; type: cell-based; conditions: S. aureus ATCC 29213, 24 h
[3] = test system: C. difficile strains; test: MIC (microdilution) against panel of 101 C. difficile strains; type: cell-based, Clostridioides difficile; conditions: Clostridioides difficile
[4] = C. difficile ATCC 43255, 48-h incubation

Structure (SMILES): FC(F)(F)c1ccc(Oc2ccc(-c3noc(-c4n[nH]cc4Cl)n3)cc2)cc1 [Compound 26]
MIC (μg/mL) 48 h [1, 4]: >128 µg/mL | MIC (μg/mL) 24 h ([1]; C. difficile ATCC 43255, 24 h): >128 µg/mL | MIC (μg/mL) 24 h [2]: 1 µg/mL (≈ 2.46 µM)

Structure (SMILES): FC(F)(F)c1ccc(Oc2ccc(-c3noc(-c4n[nH]cc4Br)n3)cc2)cc1 [Compound 27]
MIC (μg/mL) 48 h [1, 4]: >128 µg/mL | MIC (μg/mL) 24 h ([1]; C. difficile ATCC 43255, 24 h): >128 µg/mL | MIC (μg/mL) 24 h [2]: 1 µg/mL (≈ 2.22 µM)

Structure (SMILES): FC(F)(F)c1ccc(Oc2ccc(-c3noc(-c4n[nH]cc4I)n3)cc2)cc1 [Compound 28]
MIC (μg/mL) 48 h [1, 4]: 128 µg/mL (≈ 257 µM) | MIC (μg/mL) 24 h ([1]; C. difficile ATCC 43255, 24 h): 128 µg/mL (≈ 257 µM) | MIC (μg/mL) 24 h [2]: 2 µg/mL (≈ 4.01 µM)

Structure (SMILES): OCC#Cc1c[nH]nc1-c1nc(-c2ccc(Oc3ccc(C(F)(F)F)cc3)cc2)no1 [Compound 29]
MIC (μg/mL) 48 h [1, 4]: >128 µg/mL | MIC (μg/mL) 24 h ([1]; C. difficile ATCC 43255, 24 h): >128 µg/mL | MIC (μg/mL) 24 h [2]: 4 µg/mL (≈ 9.38 µM)

Structure (SMILES): O=C1C[C@H](c2nc(-c3ccc(Oc4ccc(C(F)(F)F)cc4)cc3)no2)CN1 [Compound 31]
MIC (μg/mL) 48 h [1, 4]: >128 µg/mL | MIC (μg/mL) 24 h ([1]; C. difficile ATCC 43255, 24 h): >128 µg/mL | MIC (μg/mL) 24 h [2]: >128 µg/mL

Structure (SMILES): O=C1C[C@@H](c2nc(-c3ccc(Oc4ccc(C(F)(F)F)cc4)cc3)no2)CN1 [Compound 32]
MIC (μg/mL) 48 h [1, 4]: >128 µg/mL | MIC (μg/mL) 24 h ([1]; C. difficile ATCC 43255, 24 h): >128 µg/mL | MIC (μg/mL) 24 h [2]: >128 µg/mL

Structure (SMILES): FC(F)(F)c1ccc(Oc2ccc(-c3noc(-c4c[nH]cn4)n3)cc2)cc1 [Compound 34]
MIC (μg/mL) 48 h [1, 4]: 8 µg/mL (≈ 21.5 µM) | MIC (μg/mL) 24 h ([1]; C. difficile ATCC 43255, 24 h): 8 µg/mL (≈ 21.5 µM) | MIC (μg/mL) 24 h [2]: 2 µg/mL (≈ 5.37 µM)

Structure (SMILES): FC(F)(F)c1ccc(Oc2ccc(-c3noc(-c4cn[nH]n4)n3)cc2)cc1 [Compound 35]
MIC (μg/mL) 48 h [1, 4]: >128 µg/mL | MIC (μg/mL) 24 h ([1]; C. difficile ATCC 43255, 24 h): >128 µg/mL | MIC (μg/mL) 24 h [2]: 16 µg/mL (≈ 42.9 µM)

Structure (SMILES): Nc1c[nH]nc1-c1nc(-c2ccc(Oc3ccc(C(F)(F)F)cc3)cc2)no1 [Compound 37]
MIC (μg/mL) 48 h [1, 4]: >128 µg/mL | MIC (μg/mL) 24 h ([1]; C. difficile ATCC 43255, 24 h): >128 µg/mL | MIC (μg/mL) 24 h [2]: 4 µg/mL (≈ 10.3 µM)

MIC ([1]; ATCC43255, 24 h, C. difficile ATCC 43255, 24 h, read-out: MIC (μg/mL) 24 h): 4 µg/mL (≈ 11.5 µM) | MIC ([1]; ATCC43255, 48 h, C. difficile ATCC 43255, 48-h incubation, read-out: MIC (μg/mL) 48 h): 8 µg/mL (≈ 23 µM) | MIC ([1]; ATCC43255, strain ATCC43255, read-out: MIC): 2 µg/mL (≈ 5.76 µM) | MIC ([3]; ATCC43598, strain ATCC43598): 2 µg/mL (≈ 5.76 µM) | MIC ([3]; BAA1801, strain BAA-1801): 4 µg/mL (≈ 11.5 µM) | MIC ([3]; BAA1803, strain BAA-1803): 2 µg/mL (≈ 5.76 µM) | MIC ([3]; BAA1804, strain BAA-1804): 2 µg/mL (≈ 5.76 µM) | MIC ([3]; BAA1812, strain BAA-1812): 2 µg/mL (≈ 5.76 µM) | MIC ([3]; BAA1814, strain BAA-1814): 4 µg/mL (≈ 11.5 µM) | MIC ([3]; BAA1870, strain BAA-1870): 4 µg/mL (≈ 11.5 µM) | MIC ([3]; strain HM-88): 4 µg/mL (≈ 11.5 µM) | MIC ([3]; strain HM-89): 8 µg/mL (≈ 23 µM) | MIC ([3]; strain HM-745): 2 µg/mL (≈ 5.76 µM) | MIC ([3]; strain HM-746): 2 µg/mL (≈ 5.76 µM) | MIC ([3]; strain HM-747): 1 µg/mL (≈ 2.88 µM) | MIC ([3]; strain NR49292): 8 µg/mL (≈ 23 µM) | MIC ([3]; strain NR49294): 2 µg/mL (≈ 5.76 µM) | MIC ([3]; strain NR49302): 4 µg/mL (≈ 11.5 µM) | MIC ([3]; strain NR49305): 8 µg/mL (≈ 23 µM) | MIC ([3]; strain NR49310): 4 µg/mL (≈ 11.5 µM) | MIC ([3]; strain NR49318): 8 µg/mL (≈ 23 µM) | MIC ([3]; strain NR-13427): 8 µg/mL (≈ 23 µM) | MIC ([3]; strain NR-13428): 8 µg/mL (≈ 23 µM) | MIC ([3]; strain NR-13429): 4 µg/mL (≈ 11.5 µM) | MIC ([3]; strain NR-13430): 8 µg/mL (≈ 23 µM) | MIC ([3]; strain NR-13431): 4 µg/mL (≈ 11.5 µM) | MIC ([3]; strain NR-13433): 4 µg/mL (≈ 11.5 µM) | MIC ([3]; strain NR-13434): 4 µg/mL (≈ 11.5 µM) | MIC ([3]; strain NR-13435): 4 µg/mL (≈ 11.5 µM) | MIC ([3]; strain NR-13436): 8 µg/mL (≈ 23 µM) | MIC ([3]; strain NR-13437): 8 µg/mL (≈ 23 µM) | MIC ([3]; strain NR-13438): 8 µg/mL (≈ 23 µM) | MIC ([3]; strain NR-13553): 4 µg/mL (≈ 11.5 µM) | MIC ([3]; strain NR-32882): 4 µg/mL (≈ 11.5 µM) | MIC ([3]; strain NR-32883): 4 µg/mL (≈ 11.5 µM) | MIC ([3]; strain NR-32884): 4 µg/mL (≈ 11.5 µM) | MIC ([3]; strain NR-32885): 8 µg/mL (≈ 23 µM) | MIC ([3]; strain NR-32886): 8 µg/mL (≈ 23 µM) | MIC ([3]; strain NR-32887): 4 µg/mL (≈ 11.5 µM) | MIC ([3]; strain NR-32888): 8 µg/mL (≈ 23 µM) | MIC ([3]; strain NR-32889): 4 µg/mL (≈ 11.5 µM) | MIC ([3]; strain NR-32890): 4 µg/mL (≈ 11.5 µM) | MIC ([3]; strain NR-32891): 4 µg/mL (≈ 11.5 µM) | MIC ([3]; strain NR-32892): 4 µg/mL (≈ 11.5 µM) | MIC ([3]; strain NR-32895): 8 µg/mL (≈ 23 µM) | MIC ([3]; strain NR-32896): 4 µg/mL (≈ 11.5 µM) | MIC ([3]; strain NR-32897): 4 µg/mL (≈ 11.5 µM) | MIC ([3]; strain NR-32900): 4 µg/mL (≈ 11.5 µM) | MIC ([3]; strain NR-32903): 2 µg/mL (≈ 5.76 µM) | MIC ([3]; strain NR-32904): 4 µg/mL (≈ 11.5 µM) | MIC ([3]; strain NR-49277): 4 µg/mL (≈ 11.5 µM) | MIC ([3]; strain NR-49278): 4 µg/mL (≈ 11.5 µM) | MIC ([3]; strain NR-49279): 4 µg/mL (≈ 11.5 µM) | MIC ([3]; strain NR-49280): 2 µg/mL (≈ 5.76 µM) | MIC ([3]; strain NR-49281): 4 µg/mL (≈ 11.5 µM) | MIC ([3]; strain NR-49282): 2 µg/mL (≈ 5.76 µM) | MIC ([3]; strain NR-49283): 2 µg/mL (≈ 5.76 µM) | MIC ([3]; strain NR-49284): 4 µg/mL (≈ 11.5 µM) | MIC ([3]; strain NR-49285): 4 µg/mL (≈ 11.5 µM) | MIC ([3]; strain NR-49286): 2 µg/mL (≈ 5.76 µM) | MIC ([3]; strain NR-49287): 4 µg/mL (≈ 11.5 µM) | MIC ([3]; strain NR-49288): 4 µg/mL (≈ 11.5 µM) | MIC ([3]; strain NR-49289): 4 µg/mL (≈ 11.5 µM) | MIC ([3]; strain NR-49290): 4 µg/mL (≈ 11.5 µM) | MIC ([3]; strain NR-49291): 4 µg/mL (≈ 11.5 µM) | MIC ([3]; strain NR-49293): 2 µg/mL (≈ 5.76 µM) | MIC ([3]; strain NR-49295): 4 µg/mL (≈ 11.5 µM) | MIC ([3]; strain NR-49296): 8 µg/mL (≈ 23 µM) | MIC ([3]; strain NR-49297): 4 µg/mL (≈ 11.5 µM) | MIC ([3]; strain NR-49298): 8 µg/mL (≈ 23 µM) | MIC ([3]; strain NR-49299): 8 µg/mL (≈ 23 µM) | MIC ([3]; strain NR-49300): 8 µg/mL (≈ 23 µM) | MIC ([3]; strain NR-49301): 8 µg/mL (≈ 23 µM) | MIC ([3]; strain NR-49303): 4 µg/mL (≈ 11.5 µM) | MIC ([3]; strain NR-49304): 8 µg/mL (≈ 23 µM) | MIC ([3]; strain NR-49306): 4 µg/mL (≈ 11.5 µM) | MIC ([3]; strain NR-49307): 2 µg/mL (≈ 5.76 µM) | MIC ([3]; strain NR-49308): 2 µg/mL (≈ 5.76 µM) | MIC ([3]; strain NR-49309): 8 µg/mL (≈ 23 µM) | MIC ([3]; strain NR-49311): 4 µg/mL (≈ 11.5 µM) | MIC ([3]; strain NR-49312): 4 µg/mL (≈ 11.5 µM) | MIC ([3]; strain NR-49313): 4 µg/mL (≈ 11.5 µM) | MIC ([3]; strain NR-49314): 4 µg/mL (≈ 11.5 µM) | MIC ([3]; strain NR-49315): 2 µg/mL (≈ 5.76 µM) | MIC ([3]; strain NR-49316): 4 µg/mL (≈ 11.5 µM) | MIC ([3]; strain NR-49317): 2 µg/mL (≈ 5.76 µM) | MIC ([3]; strain NR-49319): 4 µg/mL (≈ 11.5 µM) | MIC ([3]; strain NR-49320): 4 µg/mL (≈ 11.5 µM) | MIC ([3]; strain NR-49321): 4 µg/mL (≈ 11.5 µM) | MIC ([3]; strain NR-49323): 4 µg/mL (≈ 11.5 µM) | MIC ([3]; strain NR-49324): 8 µg/mL (≈ 23 µM) | MIC ([3]; strain NR-49325): 4 µg/mL (≈ 11.5 µM) | MIC ([3]; strain NR-49326): 8 µg/mL (≈ 23 µM) | MIC ([3]; strain NR-49327): 8 µg/mL (≈ 23 µM) | MIC ([3]; strain NR-49328): 8 µg/mL (≈ 23 µM) | MIC ([3]; strain NR-49329): 8 µg/mL (≈ 23 µM) | MIC ([3]; strain RMA23691): 2 µg/mL (≈ 5.76 µM) | MIC ([3]; strain RMA23828): 8 µg/mL (≈ 23 µM) | MIC ([3]; strain RMA24531): 2 µg/mL (≈ 5.76 µM) | MIC ([3]; strain RMA24923): 2 µg/mL (≈ 5.76 µM) | MIC ([3]; strain RMA26675): 8 µg/mL (≈ 23 µM) | MIC ([3]; strain RMA27081): 8 µg/mL (≈ 23 µM) | MIC ([3]; strain RMA27173): 4 µg/mL (≈ 11.5 µM) | MIC50 ([3]; C. difficile strains of Table 4, read-out: MIC50): 4 µg/mL (≈ 11.5 µM) | MIC90 ([3]; C. difficile strains of Table 4, read-out: MIC90): 8 µg/mL (≈ 23 µM)
Structure (SMILES): c1cc(-c2noc(-c3ccc4c(c3)CCN4)n2)ccc1OC1CCCC1 [Compound 54, 3-(4-(Cyclopentyloxy)phenyl)-5-(indolin-5-yl)-1,2,4-oxadiazole]
